Patent publication US4772633A, “6-pyridyl- and 6-phenyl-3-phenyl-1-hexenes and -1-hexynes, composition containing them, and insecticidal and acaricidal method of using them” (Sumitomo Chemical Company, Limited, priority 1986, dated 1988)
In brackets after ≈: the same amount, converted by molar mass. Where two headings read alike, the source gives them in different places.

What was measured:
Assay type in all cases: in vivo
[1] = system: resistant strain of green rice leafhopper (Nephotetix cincticecs); assay: Test Example 3: LC50 against adults of a resistant strain of green rice leafhopper (rice seedling dipping); conditions: Nephotettix cincticeps, 24 h, read-out: LC50 value
Protocol: The emulsifiable concentrates of the following present compounds and control compounds obtained according to Formulation example 2 were each diluted with water to a prescribed concentration, and rice seedlings (about 12 cm in length) were dipped for 1 minute in the resulting aqueous dilute solutions. After air-drying, the seedlings were placed in test tube, and 10 adults of a resistant strain of green rice leafhopper (Nephotetix cincticecs) were liberated in the tube. After one day, the dead and alive of the adults were examined to obtain LC50 (50% lethal concentration)(two replications).

[2] = system: common mosquito (Culex pipiens pallens); assay: Test Example 1: mortality of larvae and inhibition of emergence of common mosquito; conditions: for Inhibitory ratio of emergence: 3.5 ppm, counted when all mosquitoes of no treatment group had emerged; for mortality at 3.5 ppm: Culex pipiens, 24 h, last instar larvae, after one day
Protocol: The emulsifiable concentrates of the following present compounds obtained according to Formulation example 2 were each diluted with water so as to obtain respective aqueous solutions containing 3.5 ppm of said compounds, respectively. One hundred ml of thus diluted aqueous solutions were poured into respective polyethylene cups of 180 ml volume, and 20 of the last instar larvae of common mosquito (Culex pipiens pallens) were liberated thereto. After one day, the dead or alive of the larvae were examined. Thereafter, the feed was added to respective cups and the number of emerged mosquitoes of the respective cups was counted when all the mosquitoes of no treatment group had […] to calculate the inhibitory ratios of the emergence. The mortality and the inhibitory ratio of the emergence are shown according to the following three criteria: mortality: A; 90% or more, […] inhibitory: A; 90% or more, ratio of emergence B; less than 90% to 80% C; less than 80%.

[3] = system: young Japanese carp (Cyprinida carpio); assay: Test Example 9: fish toxicity test; conditions: forty-eight hours, 25°±1° C., Probit method, 2880 min
Protocol: Twenty liters of each of the aqueous solutions containing the prescribed concentrations of the present compounds and comparative control one, and 10 young carp were liberated thereto. Forty-eight hours after, the dead and alive carp were examined to obtain LC50 value, (50% lethal concentration) according to Probit method. All the tests were carried out in thermostatic aquaria whose temperatures were kept at 25°±1° C.
young Japanese carp (Cyprinida carpio)
Average body length ±S.D.: 2.94±0.19 cm.
Average body weight ±S.D.: 0.65±0.13 g.

[4] = system: carmine spider mite (Tetranychus cinnabarinus); assay: Test Example 8: degree of damage of kidney bean plant by carmine spider mite; design: key: -: No damage is observed.; +: Slight damage is observed.; ++: The same damage as in the untreated plot is observed; conditions: 500 ppm, sprayed 15 ml/pot plus 2 ml to soil; after 8 days; 25° C.
Protocol: The female adults of carmine spider mite (Tetranychus cinnabarinus) were put at a rate of 10 adults/leaf on the leaves of potted kidney bean (at the primordial leaf stage) which had elapsed 7 days after sowing, and placed in a constant-temperature room kept at 25° C. After 6 days, the 200-fold aqueous dilute solutions (corresponding to 500 ppm), prepared from the emulsifiable concentrates of the following present compounds and control compounds prepared according to Formulation example 2, were each sprayed at a rate of 15 ml/pot on a turn table. At the same time, the soil in the pot was treated with 2 ml of each aqueous solution. After 8 days, the degree of damage of the plant by the mite was examined.
-: No damage is observed.
+: Slight damage is observed.
++: The same damage as in the untreated plot is observed.

[5] = system: brown rice planthoppers (Nilaparavata lugens); assay: Test Example 7: mortality and residual effect on brown rice planthoppers on sprayed potted rice plants; conditions: Oryza sativa, 24 h
Protocol: The emulsifiable concentrates of the following compounds and control compounds obtained according to Formulation example 2 were each diluted with water one thousand times (corresponding to 100 ppm) and each of thus prepared solutions was sprayed at the rate of 20 ml/2 pots to the rice plant seedlings planted in Wagner pots having a surface area of one ten thousandth are. After air-drying, the threated plants were covered with the iron wire cages, and about 15 adults of brown rice planthoppers (Nilaparavata lugens) were liberated thereto. Further, about 15 adults thereof were also liberated thereto 4 days after the application to examine the residual effects. Twenty four hours after each liberation, the dead and alive adults were examined to calculate the mortality.

[6] = system: rice stem borer (Chilo suppressalis); assay: Test Example 5: LC50 against rice stem borer larvae (artificial feed); conditions: larvae 10 days old, two replications
Description: Ten of the larvae of the 10 days old were liberated thereon.

[7] = system: brown rice planthopper (Nilaparvata lugens); assay: Test Example 4: LC50 against adults of brown rice planthopper (rice seedling dipping); conditions: 24 h, rice seedlings dipped, 10 adults, after one day, two replications
Description: After air-drying, the seedlings were placed in a test tube, and 10 adults of brown rice planthopper (Nilaparvata lugens) were liberated in the tube.

[8] = system: houseflies (Musca domestica) of WHO strains; assay: Test Example 6: LC50 against adult female houseflies of WHO strains (sucrose bait); conditions: filter paper with sucrose bait, adult females, after 48 hours, two replications
Description: Thirty milligrams of sucrose were uniformly placed on the filter paper as bait. Thereafter, 10 adult female houseflies (Musca domestica) of WHO strains were liberated in the cup, which was then covered witha lid.

[9] = system: tobacco cutworms (Spodoptera litura); assay: Test Example 2: mortality of tobacco cutworm 4th instar larvae on treated artificial feed; conditions: 144 h, 2 ml in 13 g artificial feed, six days after, two replications
Description: Two ml of thus diluted solutions were impregnated into the artificial feeds (13 g) for tobacco cutworms (Spodoptera litura) and thus prepared feeds were placed in polyethylene cups of 11 cm in diameter, respectively. Ten of the 4th instar larvae were liberated thereon.
Six days after, the dead and alive of the larvae were examined to calculate the mortality (two replications).

[10] = rice seedlings dipped 1 minute, 10 adults, after one day, two replications
[11] = read-out: Mortality (%) liberated 4 days after application
[12] = read-out: Mortality (%) liberated just after air-drying

Compound | Inhibitory ratio of emergence [2] | mortality at 3.5 ppm [2] [%] | Degree of damage [4] | mortality at 100 ppm [5, 11] [%] | mortality at 100 ppm [5, 12] [%] | other results
CCOC(=O)CC(SP(=S)(OC)OC)C(=O)OCC (stereo not drawn) [(D), Malathion, reference compound] |  |  |  |  |  | LC50 [1, 10]: ~500 µg/mL (≈ 1510 µM)
C#CC(C)(CCCc1cccc(Oc2ccccc2)c1)c1ccc(OCC)cc1 (stereo not drawn) [(3), 3-(4-ethoxyphenyl)-3-methyl-6-(3-phenoxyphenyl)-1-hexyne] | A (90% or more) | > 90 | - | 95 | 100 | LC50 value (fish toxicity) [3]: > 10 ppm
C#CC(C)(CCCc1ccc(F)c(Oc2ccccc2)c1)c1ccc(OCC)cc1 (stereo not drawn) [(4), 3-(4-Ethoxyphenyl)-3-methyl-6-(3-phenoxy-4-fluorophenyl)-1-hexyne] | A (90% or more) | > 90 | - | 100 | 100 | LC50 value (fish toxicity) [3]: > 10 ppm
CCC(C)(CCCc1cccc(Oc2ccccc2)c1)c1ccc(Cl)cc1 (stereo not drawn) [(A), reference compound] |  |  | + ~ ++ | 44 | 71 | LC50 [6]: 230 µg/mL (≈ 607 µM); LC50 [7]: > 500 µg/mL; LC50 [1]: ~500 µg/mL (≈ 1320 µM); LC50 [8]: ~500 µg/mL (≈ 1320 µM)
C#CC(C)(CCCc1cccc(Oc2ccccc2)c1)c1ccc(OCC=C)cc1 (stereo not drawn) [(7), 3-(4-allyloxyphenyl)-3-methyl-6-(3-phenoxyphenyl)-1-hexyne] | A (90% or more) | 10 to 90 | - | 93 | 100 | 
C=CC(C)(CCCc1ccc(F)c(Oc2ccccc2)c1)c1ccc(OCC)cc1 (stereo not drawn) [(2), 3-(4-Ethoxyphenyl)-3-methyl-6-(3-phenoxy-4-fluorophenyl)-1-hexene] | A (90% or more) | > 90 | - | 100 | 100 | 
C=CC(C)(CCCc1cccc(Oc2ccccc2)c1)c1ccc(OCC)cc1 (stereo not drawn) [(1), 3-(4-ethoxyphenyl)-3-methyl-6-(3-phenoxyphenyl)-1-hexene] | A (90% or more) | > 90 | - ~ + | 100 | 100 | 
CCOc1ccc(C(C)(C)COCc2cccc(Oc3ccccc3)c2)cc1 [(B), reference compound] |  |  | + ~ ++ | 65 | 100 | 
C#CC(C)(CCCc1ccc(F)c(Oc2ccccc2)c1)c1ccc(C(F)(F)F)cc1 (stereo not drawn) [(37), 3-(4-Trifluoromethylphenyl)-3-methyl-6-(3-phenoxy-4-fluorophenyl)-1-hexyne] | A (90% or more) | > 90 |  |  |  | LC50 [1, 10]: 14 µg/mL (≈ 32.8 µM)
C#CC(C)(CCCc1cccc(Oc2ccccc2)c1)c1ccc(OCC)c(Cl)c1 (stereo not drawn) [(16), 3-(3-Chloro-4-ethoxyphenyl)-3-methyl-6-(3-phenoxyphenyl)-1-hexyne] | A (90% or more) | 10 to 90 | - |  |  | 
C#CC(C)(CCCc1cccc(Oc2ccccc2)c1)c1ccc(C(F)(F)F)cc1 (stereo not drawn) [(13), 3-(4-Trifluoromethylphenyl)-3-methyl-6-(3-phenoxyphenyl)-1-hexyne] | A (90% or more) | > 90 | - |  |  | mortality at 150 ppm [9]: 100%; LC50 [1]: 10 µg/mL (≈ 24.5 µM)
C#CC(C)(CCCc1ccc(F)c(Oc2ccccc2)c1)c1ccc(CC)cc1 (stereo not drawn) [(39), 3-(4-Ethylphenyl)-3-methyl-6-(3-phenoxy-4-fluorophenyl)-1-hexyne] | A (90% or more) | > 90 | - ~ + |  |  | 
C#CC(C)(CCCc1ccc(F)c(Oc2ccccc2)c1)c1ccc(OCC=C)cc1 (stereo not drawn) [(8), 3-(4-Allyloxyphenyl)-3-methyl-6-(3-phenoxy-4-fluorophenyl)-1-hexyne] | A (90% or more) | > 90 | - |  |  | 
CCC(C)c1ccccc1OC(=O)NC (stereo not drawn) [(C), BPMC, reference compound] |  |  |  | 6 | 100 | 
